In patent US20050256034A1, “Dioxolane analogs for improved inter-cellular delivery” (priority 2000, published 2005):
Counter-ions that a name gives are not always drawn.

Test: 3H-Thymidine Incorporation Assay (24 hr drug, wash, another 48 hr; 72 hr assay)
Assay type: cell-based
Conditions: CCRF-CEM, read-out: IC50 in μM (3H-TdR incorporation at 72 hr) CEM/dCK- 24 h, CEM/dCK- (CCRF-CEM deoxycytidine kinase-deficient); 24 h exposure to drug, wash, another 48 hr

Compound	IC50 [µM]
N=C(OC[C@H]1OC[C@@H](n2ccc(N)nc2=O)O1)C(Cl)(Cl)Cl [Compound 79, 2,2,2-TRICHLORO-ACETI- MIDIC ACID 4-(4-A- MINO-2-OXO-2H-PYRI- MIDIN-1-YL)-[1,3]DI- OXOLAN-2-YL- METHYL ESTER]	63
Nc1ccn([C@@H]2CO[C@H](COC(=O)CCCCCNCc3ccccc3)O2)c(=O)n1 [Compound 84, 6-Benzylamino-hexanoic acid 4-(4-amino-2-oxo-2H-pyri-midin-1-yl)-[1,3]di-oxolan-2-ylmethyl ester]	60

Same assay, conditions: MCF7, read-out: IC50 in μM (3H-TdR incorporation at 72 hr) MCF-7 24 h, MCF-7 human breast carcinoma; 24 h exposure to drug, wash, another 48 hr

Compound	IC50 [µM]
Nc1ccn([C@@H]2CO[C@H](COCOCc3ccccc3)O2)c(=O)n1 [Compound 56, 4-AMINO-1-(2-BENZYLOXY- METHOXYMETHYL-[1,3]DI- OXOLAN-4-YL)-1H-PYRI- MIDIN-2-ONE]	2

Same assay, conditions: NCI-H460, read-out: IC50 in μM (3H-TdR incorporation at 72 hr) H-460 24 h, H-460 human lung carcinoma; 24 h exposure to drug, wash, another 48 hr

Compound	IC50 [µM]
Nc1ccn([C@@H]2CO[C@H](COCOCc3ccccc3)O2)c(=O)n1 [Compound 56, 4-AMINO-1-(2-BENZYLOXY- METHOXYMETHYL-[1,3]DI- OXOLAN-4-YL)-1H-PYRI- MIDIN-2-ONE]	7
CC(C(=O)OC[C@H]1OC[C@@H](n2ccc(N)nc2=O)O1)c1ccccc1 (stereo partly drawn) [Compound 69, (2S,4S)-2-(2″-METHYL- PHENYLACETOXY)METH- YL-4-CYTOSIN-1′-YL-1,3-DI- OXOLANE]	0.045

Same assay, conditions: NCI-H460, read-out: IC50 in μM (3H-TdR incorporation at 72 hr) H-460 (72 h), H-460 human lung carcinoma; 72 h exposure

Compound	IC50 [µM]
CC(=O)OC[C@H]1OC[C@@H](n2ccc(N)nc2=O)O1 [Compound 27]	0.0053

Same assay, conditions: ratio of IC50 CEM/dCK- to IC50 CCRF-CEM, 24 h exposure

Compound	Factor (Resistance Factor = Ratio of dCK- on Wild-type CCRF-CEM)
CCC(C)(C)OC(C)OC[C@H]1OC[C@@H](n2ccc(N)nc2=O)O1 (mixture of isomers) [Compound 117, 4-AMINO-1-{2-[1-(1,1-DI- METHYL-PROPOXY)-ETH- OXYMETHYL]-[1,3]DI- OXOLAN-4-YL}-1H-PYRI- MIDIN-2-ONE]	494
Nc1ccn([C@@H]2CO[C@H](COC3CCCCO3)O2)c(=O)n1 (some centres unmarked) [Compound 41, 4-AMINO-1-[2-(TETRA- HYDRO-PYRAN-2-YLOXY- METHYL)-[1,3]DI- OXOLAN-4-YL]-1H-PYRI- MIDIN-2-ONE]	5
O=C(Nc1ccn([C@@H]2CO[C@H](COC(=O)Oc3ccccc3)O2)c(=O)n1)Oc1ccccc1 [Compound 43, CARBONIC ACID 4-(2-OXO-4-PHENOXY- CARBONYLAMINO-2H-PYRI- MIDIN-1-YL)-[1,3]DI- OXOLAN-2-YLMETH- YL ESTER PHENYL ESTER]	1,000,000
O=C(Nc1ccn([C@@H]2CO[C@H](CO)O2)c(=O)n1)Oc1ccccc1 [Compound 44, [1-(2-HYDROXYMETHYL-[1,3]DI- OXOLAN-4-YL)-2-OX- O-1,2-DIHYDRO-PYRI- MIDIN-4-YL]-CARBAMIC ACID PHENYL ESTER]	1,300
CCOC(=O)Nc1ccn([C@@H]2CO[C@H](CO)O2)c(=O)n1 [Compound 45, [1-(2-HYDROXYMETHYL-[1,3]DI- OXOLAN-4-YL)-2-OX- O-1,2-DIHYDRO-PYRI- MIDIN-4-YL]-CARBAMIC ACID ETHYL ESTER]	63
CCOC(=O)Nc1ccn([C@@H]2CO[C@H](COC(=O)OCC)O2)c(=O)n1 [Compound 47, CARBONIC ACID 4-(4-ETH- OXYCARBONYLAMINO-2-OX- O-2H-PYRIMIDIN-1-YL)-[1,3]DI- OXOLAN-2-YL- METHYL ESTER ETHYL ESTER]	34
Nc1ccn([C@@H]2CO[C@H](COC(=O)Cc3ccccc3)O2)c(=O)n1 [Compound 52, (2S,4S)-2-PHENYL- ACETOXYMETHYL-4-CYTO- SIN-1′-YL-1,3-DI- OXOLANE]	400
COc1ccc(OC(=O)Nc2ccn([C@@H]3CO[C@H](COC(=O)Oc4ccc(OC)cc4)O3)c(=O)n2)cc1 [Compound 63, CARBONIC ACID 4-[4-(4-METH- OXY-PHENOXY- CARBONYLAMINO)-2-OX- O-2H-PYRIMIDIN-1-YL]-[1,3]DI- OXOLAN-2-YLMETHYL ESTER 4-METH- OXY-PHENYL ESTER]	2,778
CCCCC(C)C(=O)OC[C@H]1OC[C@@H](n2ccc(/N=C/N(C)C)nc2=O)O1 (stereo partly drawn) [Compound 64, (2S,4S)-2-(2″-METHYL-HEXANO- ICOXYMETHYL)-4-(4′-NN-DI- METHYLAMINOMETHYLENE-CYTO- SIN-1′-YL)-1,3-DI- OXOLANE]	2,000
CC(C)OC(=O)OCOC[C@H]1OC[C@@H](n2ccc(N)nc2=O)O1.O=C(O)C(F)(F)F.O=C(O)C(F)(F)F [Compound 68, CARBONIC ACID 4-(4-A- MINO-2-OXO-2H-PYRI- MIDIN-1-YL)-[1,3]DI- OXOLAN-2-YL- METHOXYMETHYL ESTER ISOPROPYL ESTER TRIFLUOROACETIC ACID SALT]	3,333
N=C(OC[C@H]1OC[C@@H](n2ccc(N)nc2=O)O1)C(Cl)(Cl)Cl [Compound 79, 2,2,2-TRICHLORO-ACETI- MIDIC ACID 4-(4-A- MINO-2-OXO-2H-PYRI- MIDIN-1-YL)-[1,3]DI- OXOLAN-2-YL- METHYL ESTER]	4,500
COC(=O)CCCC(=O)Nc1ccn([C@@H]2CO[C@H](CO)O2)c(=O)n1 [Compound 81, 4-[1-(2-HYDROXYMETHYL-[1,3]DI- OXOLAN-4-YL)-2-OX- O-1,2-DIHYDRO-PYRI- MIDIN-4-YL- CARBAMOYL]-BUTYRIC ACID METHYL ESTER]	83
Nc1ccn([C@@H]2CO[C@H](COC(=O)CCCCCNCc3ccccc3)O2)c(=O)n1 [Compound 84, 6-Benzylamino-hexanoic acid 4-(4-amino-2-oxo-2H-pyri-midin-1-yl)-[1,3]di-oxolan-2-ylmethyl ester]	5,000
Nc1ccn([C@@H]2CO[C@H](CO[C@@H]3O[C@H](CO)[C@@H](O)[C@H]3O)O2)c(=O)n1.O=C(O)C(F)(F)F [Compound 85, 4-AMINO-1-[2-(3,4-DI- HYDROXY-5-HYDROXY- METHYL-TETRA- HYDROFURAN-2-YLOXY- METHYL)-[1,3]DI- OXOLAN-4-YL]-1HPYIMI- DIN-2-ONE, TRIFLUOROACETIC ACID SALT]	38
O=C(O)C(F)(F)F.O=c1nc(NC/C=C/c2ccccc2)ccn1[C@@H]1CO[C@H](CO)O1 [Compound 89, 1-(2-HYDROXYMETHYL-[1,3]DI- OXOLAN-4-YL)-4-(3-CIN- NAMYL)-1H-PYRI- MIDIN-2-ONE TRIFLUORO-ACETATE SALT]	40
Nc1ccn([C@@H]2CO[C@H](COC/C=C/c3ccccc3)O2)c(=O)n1.O=C(O)C(F)(F)F [Compound 90, 4-AMINO-1-[2-(3-CIN- NAMYLOXYMETHYL)-[1,3]DI- OXOLAN-4-YL]-1H-PYRI- MIDIN-2-ONE TRIFLUOROACETATE SALT]	1.5
CC(OC[C@H]1OC[C@@H](n2ccc(N)nc2=O)O1)OC1CCCCC1 (some centres unmarked) [Compound 92, 4-AMINO-1-[2-(1-CYCLO- HEXYLOXY-ETH- OXYMETHYL)-[1,3]DI- OXOLAN-4-YL]-1H-PYRI- MIDIN-2-ONE]	77
CCCCC(CC)C(=O)Nc1ccn([C@@H]2CO[C@H](CO)O2)c(=O)n1 (some centres unmarked) [Compound 99, 2-ETHYL-HEXANOIC ACID [1-(2-HYDROXYMETHYL-[1,3]DI- OXOLAN-4-YL)-2-OX- O-1,2-DIHYDRO-PYRI- MIDIN-4-YL]-AMIDE]	>20
O=C(Nc1ccn([C@@H]2CO[C@H](COC(=O)C34CC5CC(CC(C5)C3)C4)O2)c(=O)n1)OCc1ccccc1 [Compound 101, ADAMANTANE-1-CARBOXYLIC ACID 4-(4-BENZYL- OXYCARBONYLAMINO-2-OX- O-2H-PYRIMIDIN-1-YL)-[1,3]DI- OXOLAN-2-YLMETHYL ESTER]	44
O=C(Nc1ccn([C@@H]2CO[C@H](COC(=O)C34CC5CC(CC(C5)C3)C4)O2)c(=O)n1)C12CC3CC(CC(C3)C1)C2 [Compound 102, ADAMANTANE-1-CARBOXYLIC ACID 4-{4-[(ADAMANTANE-1-CAR- BONYL)-AMINO]-2-OX- O-2H-PYRIMIDIN-1-YL}-[1,3]DI- OXOLAN-2-YLMETHYL ESTER]	27
O=C(Nc1ccn([C@@H]2CO[C@H](COC(=O)Oc3ccc(Cl)cc3)O2)c(=O)n1)Oc1ccc(Cl)cc1 [Compound 103, CARBONIC ACID 4-[4-(4-CHLORO-PHENOXY- CARBONYLAMINO)-2-OX- O-2H-PYRIMIDIN-1-YL]-[1,3]DI- OXOLAN-2-YLMETHYL ESTER 4-CHLORO-PHENYL ESTER]	4,545
O=C(Nc1ccn([C@@H]2CO[C@H](CO)O2)c(=O)n1)Oc1ccc(Cl)cc1.O=C(O)C(F)(F)F [Compound 104, [1-(2-HYDROXYMETHYL-[1,3]DI- OXOLAN-4-YL)-2-OX- O-1,2-DIHYDRO-PYRI- MIDIN-4-YL]-CARBAMIC ACID 4-CHLORO-PHENYL ESTER TRIFLUOROACETATE SALT]	>476
Nc1ccn([C@@H]2CO[C@H](COC(=O)Oc3ccc(Cl)cc3)O2)c(=O)n1.O=C(O)C(F)(F)F [Compound 105, CARBONIC ACID 4-(4-A- MINO-2-OXO-2H-PYRI- MIDIN-1-YL)-[1,3]DI- OXOLAN-2-YLMETHYL ESTER 4-CHLORO-PHENYL ESTER TRIFLUOROACETATE SALT]	2 393
O=C(NCc1ccccc1)Nc1ccn([C@@H]2CO[C@H](CO)O2)c(=O)n1 [Compound 108, 1-BENZYL-3-[1-(2-HYDROXY- METHYL-[1,3]DI- OXOLAN-4-YL)-2-OX- O-1,2-DIHYDRO-PYRI- MIDIN-4-YL]-UREA]	>29
O=C(NCc1ccccc1)Nc1ccn([C@@H]2CO[C@H](COC(=O)NCc3ccccc3)O2)c(=O)n1 [Compound 109, BENZYL-CARBAMIC ACID 4-[4-(3-BEN- ZYL-UREIDO)-2-OX- O-2#H!-PYRIMIDIN-1-YL]-[1,3]DI- OXOLAN-2-YLMETHYL ESTER]	>100

Same assay, conditions: ratio of IC50 CEM/dCK- to IC50 CCRF-CEM, 24 h exposure; bis trifluoroacetate salt

Compound	Factor (Resistance Factor = Ratio of dCK- on Wild-type CCRF-CEM)
Nc1ccn([C@@H]2CO[C@H](COC(=O)CCCCCNCc3ccccc3)O2)c(=O)n1 [Compound 83, 6-Benzylamino-hexanoic acid 4-(4-amino-2-oxo-2H-pyri-midin-1-yl)-[1,3]di-oxolan-2-yl-methyl ester bis trifluoroacetate salt]	4,545
